Measurements published in PubChem BioAssay (NCI).
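Where inhibition never reached the appropriate level, the endpoint shown equals the highest concentration tested. Otherwise, values were interpolated linearly from a five-concentration, 48-hour dose response in 96-well plates. Here, GI50 denotes the concentration required for 50% inhibition of growth. TGI is the concentration that stops growth completely.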

How the values were obtained:
Assay in all cases: DTP human tumour cell line panel, 48 h
[1] = tested on: 786-0 renal
[2] = tested on: A498 renal
[3] = tested on: A549 NSCLC
[4] = tested on: ACHN renal
[5] = tested on: BT-549 breast
[6] = tested on: CAKI-1 renal
[7] = tested on: CCRF-CEM leukemia
[8] = tested on: COLO 205 colon
[9] = tested on: DU-145 prostate
[10] = tested on: EKVX NSCLC
[11] = tested on: HCC-2998 colon
[12] = tested on: HCT-116 colon
[13] = tested on: HCT-15 colon
[14] = tested on: HL-60(TB) leukemia
[15] = tested on: HOP-62 NSCLC
[16] = tested on: HOP-92 NSCLC
[17] = tested on: HS 578T breast
[18] = tested on: HT29 colon
[19] = tested on: IGROV1 ovarian
[20] = tested on: K-562 leukemia
[21] = tested on: KM12 colon
[22] = tested on: LOX IMVI melanoma
[23] = tested on: M14 melanoma
[24] = tested on: MALME-3M melanoma
[25] = tested on: MCF7 breast
[26] = tested on: MDA-MB-231 breast
[27] = tested on: MDA-MB-435
[28] = tested on: MDA-MB-468 breast
[29] = tested on: MOLT-4 leukemia
[30] = tested on: NCI-H226 lung
[31] = tested on: NCI-H23 lung
[32] = tested on: NCI-H460 lung
[33] = tested on: NCI-H522 lung
[34] = tested on: NCI/ADR-RES ovarian
[35] = tested on: OVCAR-3 ovarian
[36] = tested on: OVCAR-4 ovarian
[37] = tested on: OVCAR-5 ovarian
[38] = tested on: OVCAR-8 ovarian
[39] = tested on: PC-3 prostate
[40] = tested on: RPMI-8226 leukemia
[41] = tested on: RXF 393 renal
[42] = tested on: SF-268 CNS
[43] = tested on: SF-295 CNS
[44] = tested on: SF-539 CNS
[45] = tested on: SK-MEL-2 melanoma
[46] = tested on: SK-MEL-28 melanoma
[47] = tested on: SK-MEL-5 melanoma
[48] = tested on: SK-OV-3 ovarian
[49] = tested on: SN12C renal
[50] = tested on: SNB-19 CNS
[51] = tested on: SNB-75 CNS
[52] = tested on: SR leukemia
[53] = tested on: SW-620 colon
[54] = tested on: T-47D breast
[55] = tested on: TK-10 renal
[56] = tested on: U251 CNS
[57] = tested on: UACC-257 melanoma
[58] = tested on: UACC-62 melanoma
[59] = tested on: UO-31 renal

SMILES: NS(=O)(=O)c1ccc(N=Nc2c(O)n(CC(=O)Nc3ccccc3Cl)c3ccccc23)cc1
- GI50 [1]: 3.26 µM
- TGI [1]: 12 µM
- GI50 [2]: 3.64 µM
- TGI [2]: 16 µM
- GI50 [3]: 2.91 µM
- TGI [3]: 10.3 µM
- GI50 [4]: 2.21 µM
- TGI [4]: 6.89 µM
- GI50 [5]: 2.26 µM
- TGI [5]: 6.79 µM
- GI50 [6]: 1.89 µM
- TGI [6]: 8.37 µM
- GI50 [7]: 3.58 µM
- TGI [7]: 23.2 µM
- GI50 [8]: 2.05 µM
- TGI [8]: 4.14 µM
- GI50 [9]: 5.34 µM
- TGI [9]: 23.1 µM
- GI50 [10]: 4.09 µM
- TGI [10]: 36.1 µM
- GI50 [11]: 2.38 µM
- TGI [11]: 6.35 µM
- GI50 [12]: 2.94 µM
- TGI [12]: 12.4 µM
- GI50 [13]: 3 µM
- TGI [13]: 15.4 µM
- GI50 [14]: 2.38 µM
- TGI [14]: 7.68 µM
- GI50 [15]: 2.75 µM
- TGI [15]: 12.7 µM
- GI50 [16]: 2.15 µM
- TGI [16]: 6.45 µM
- GI50 [17]: 3.23 µM
- TGI [17]: > 100 µM
- GI50 [18]: 2.04 µM
- TGI [18]: 4.11 µM
- GI50 [19]: 4.59 µM
- TGI [19]: 19.1 µM
- GI50 [20]: 3.66 µM
- TGI [20]: > 100 µM
- GI50 [21]: 2.93 µM
- TGI [21]: 12 µM
- GI50 [22]: 3.28 µM
- TGI [22]: 15.1 µM
- GI50 [23]: 3.33 µM
- TGI [23]: 30.5 µM
- GI50 [24]: 1.89 µM
- TGI [24]: 6.91 µM
- GI50 [25]: 1.94 µM
- TGI [25]: 4.63 µM
- GI50 [26]: 3.34 µM
- TGI [26]: 16 µM
- GI50 [27]: 2.61 µM
- TGI [27]: 19.4 µM
- GI50 [28]: 1.81 µM
- TGI [28]: 3.8 µM
- GI50 [29]: 3.19 µM
- TGI [29]: 31.8 µM
- GI50 [30]: 2.5 µM
- TGI [30]: 8.45 µM
- GI50 [31]: 3.19 µM
- TGI [31]: 12.2 µM
- GI50 [32]: 3.1 µM
- TGI [32]: 10.8 µM
- GI50 [33]: 2.78 µM
- TGI [33]: 15.3 µM
- GI50 [34]: 3.93 µM
- TGI [34]: 50.3 µM
- GI50 [35]: 2.56 µM
- TGI [35]: 11.5 µM
- GI50 [36]: 4.57 µM
- TGI [36]: 55.5 µM
- GI50 [37]: 4.3 µM
- TGI [37]: 22.7 µM
- GI50 [38]: 2.49 µM
- TGI [38]: 6.85 µM
- GI50 [39]: 2.76 µM
- TGI [39]: 29.2 µM
- GI50 [40]: 3.06 µM
- TGI [40]: > 100 µM
- GI50 [41]: 2.14 µM
- TGI [41]: 5.74 µM
- GI50 [42]: 3.19 µM
- TGI [42]: 21.9 µM
- GI50 [43]: 1.67 µM
- TGI [43]: 3.58 µM
- GI50 [44]: 1.7 µM
- TGI [44]: 4.17 µM
- GI50 [45]: 3.95 µM
- TGI [45]: 21.1 µM
- GI50 [46]: 2.96 µM
- TGI [46]: 12.5 µM
- GI50 [47]: 2.12 µM
- TGI [47]: 5.11 µM
- GI50 [48]: 2.54 µM
- TGI [48]: 8.74 µM
- GI50 [49]: 3.03 µM
- TGI [49]: 16.1 µM
- GI50 [50]: 4.74 µM
- TGI [50]: 24.7 µM
- GI50 [51]: 2.01 µM
- TGI [51]: 14.4 µM
- GI50 [52]: 2.82 µM
- TGI [52]: > 100 µM
- GI50 [53]: 2.93 µM
- TGI [53]: 10.9 µM
- GI50 [54]: 2.95 µM
- TGI [54]: 34.5 µM
- GI50 [55]: 10.8 µM
- TGI [55]: 34.5 µM
- GI50 [56]: 2.81 µM
- TGI [56]: 9.62 µM
- GI50 [57]: 2.89 µM
- TGI [57]: 9.83 µM
- GI50 [58]: 1.81 µM
- TGI [58]: 5.88 µM
- GI50 [59]: 1.72 µM
- TGI [59]: 6.81 µM

SMILES: O=C(O)CCCCCCCCCCN1C(=O)/C(=C/c2cnc(-c3ccc(Cl)cc3)s2)SC1=S
- GI50 [1]: 2.64 µM
- TGI [1]: 9.67 µM
- GI50 [2]: 15.9 µM
- TGI [2]: 34.5 µM
- GI50 [3]: 1.01 µM
- TGI [3]: 4.51 µM
- GI50 [4]: 2.38 µM
- TGI [4]: 11.7 µM
- GI50 [5]: 1.95 µM
- TGI [5]: 6.1 µM
- GI50 [6]: 3.31 µM
- TGI [6]: 14.3 µM
- GI50 [7]: 3.11 µM
- TGI [7]: > 100 µM
- GI50 [8]: > 100 µM
- TGI [8]: > 100 µM
- GI50 [9]: 1.81 µM
- TGI [9]: 30 µM
- GI50 [10]: 1.84 µM
- TGI [10]: 5.13 µM
- GI50 [11]: 5.03 µM
- TGI [11]: > 100 µM
- GI50 [12]: 1.75 µM
- TGI [12]: 7.51 µM
- GI50 [13]: 1.71 µM
- TGI [13]: 3.67 µM
- GI50 [14]: 3.91 µM
- TGI [14]: > 100 µM
- GI50 [15]: 3.81 µM
- TGI [15]: 15.9 µM
- GI50 [16]: 0.292 µM
- TGI [16]: 1.79 µM
- GI50 [17]: 11.7 µM
- TGI [17]: > 100 µM
- GI50 [18]: > 100 µM
- TGI [18]: > 100 µM
- GI50 [19]: 2.89 µM
- TGI [19]: 13.7 µM
- GI50 [20]: 3.71 µM
- TGI [20]: > 100 µM
- GI50 [21]: 2.93 µM
- TGI [21]: > 100 µM
- GI50 [22]: 1.69 µM
- TGI [22]: 3.87 µM
- GI50 [23]: 2.1 µM
- TGI [23]: 5.71 µM
- GI50 [24]: 5.92 µM
- TGI [24]: 28.1 µM
- GI50 [25]: 3.73 µM
- TGI [25]: > 100 µM
- GI50 [26]: 1.65 µM
- TGI [26]: 4.48 µM
- GI50 [27]: 4.69 µM
- TGI [27]: > 100 µM
- GI50 [28]: 2.63 µM
- TGI [28]: 12 µM
- GI50 [29]: 3.39 µM
- TGI [29]: > 100 µM
- GI50 [30]: 6.46 µM
- TGI [30]: 57.2 µM
- GI50 [31]: 2.43 µM
- TGI [31]: 8.95 µM
- GI50 [32]: 1.37 µM
- TGI [32]: > 100 µM
- GI50 [33]: 1.68 µM
- TGI [33]: 4.55 µM
- GI50 [34]: 1.69 µM
- TGI [34]: 8.18 µM
- GI50 [35]: 4.87 µM
- TGI [35]: 51.4 µM
- GI50 [36]: 5.56 µM
- TGI [36]: > 100 µM
- GI50 [37]: 2.59 µM
- TGI [37]: > 100 µM
- GI50 [38]: 1.65 µM
- TGI [38]: 5.11 µM
- GI50 [39]: 1.26 µM
- TGI [39]: 4.9 µM
- GI50 [40]: 10.3 µM
- TGI [40]: > 100 µM
- GI50 [41]: 12.1 µM
- TGI [41]: 47.3 µM
- GI50 [42]: 4.99 µM
- TGI [42]: > 100 µM
- GI50 [43]: 2.29 µM
- TGI [43]: 7.26 µM
- GI50 [44]: 3.18 µM
- TGI [44]: 13.2 µM
- GI50 [45]: 2.12 µM
- TGI [45]: 5.02 µM
- GI50 [46]: 2.69 µM
- GI50 [47]: 1.86 µM
- TGI [47]: 4.74 µM
- GI50 [48]: 3.24 µM
- TGI [48]: 8.72 µM
- GI50 [49]: 1.39 µM
- TGI [49]: 2.89 µM
- GI50 [50]: 2.86 µM
- TGI [50]: 9.76 µM
- GI50 [51]: 15.4 µM
- TGI [51]: 42.3 µM
- GI50 [52]: 0.367 µM
- TGI [52]: 4.8 µM
- GI50 [53]: 2.52 µM
- TGI [53]: 7.21 µM
- GI50 [54]: 4.77 µM
- TGI [54]: > 100 µM
- GI50 [55]: 5.48 µM
- TGI [55]: 16.1 µM
- GI50 [56]: 2.07 µM
- TGI [56]: 6.06 µM
- GI50 [57]: 5.6 µM
- TGI [57]: > 100 µM
- GI50 [58]: 1.57 µM
- TGI [58]: 3.29 µM
- GI50 [59]: 3.76 µM
- TGI [59]: 28.2 µM
